Data reported in patent publication US6541191B2, “Photographic processing solutions” (Eastman Kodak Company, priority 1996, dated 2003).
Several values for one entry are separate records, joined by “and”; a condition that tells them apart may be missing. Equal values may be shown once. Read-outs that look alike come from different tables or passages of the source.

Tests used:
Type in all cases: physicochemical
[1] = Solubility of processing compounds (stated in the description)
[2] = Keeping test of continuously aerated developers with limited-solubility antioxidants, analysed for CD3 content (Example 2); conditions: about 0.029 molar antioxidant added, developer pH 10.05; rest solid swirling in solution
Method: The compounds CSD and MCH were compared with diethyl hydroxylamine at equimolar levels in a developer of the composition shown in Table 2.
The antioxidant level was equivalent to 3.0 ml/l diethyl hydroxylamine (85%); which is about 0.029 molar. The three developers were as follows;
These developers were placed in 500 ml measuring cylinders and stirred continuously with magnetic stirrers to create a vortex depth of about 5 mm in each case in order to ensure continuous aeration.

[3] = Equilibrium level of MCH in circulated potassium carbonate solution on dilution or evaporation (Example 1); conditions: potassium carbonate pH 10.5
Method: A circulation system of about 500 ml capacity was set up in which solid N-monocyclohexyl hydroxylamine (MCH) was retained behind a removable filter paper filter. The solution circulated was potassium carbonate at pH=10.5. The solution was left to circulate for 30 minutes and the amount of MCH in solution was determined by removing the paper filter that retained the MCH, drying and weighing it. […] The volume was increased by increments of 10%. In a second part of the experiment most of the solution was removed from the system and evaporated to reduce its volume, again in increments of 10%. Solid MCH came out of solution and was collected on the filter and weighed as before.

## CCCNc1nc(NO)nc(NO)n1 [CSD, 4,5-dihydroxylamino-2-propylamino-1,3,5-triazine]
[1]
  solubility: 500 µg/mL to 1000 µg/mL and ~5000 µM

## CCN(O)CC [Diethyl hydroxylamine, reference compound]
[1]
  solubility in water: essentially miscible in all proportions with water
[2]
  share of the antioxidant in solution in the developer: completely in solution

## ONC1CCCCC1 [MCH, Mono-N-cyclohexylhydroxylamine]
[1]; aqueous buffer, at developer pH (10.0)
  solubility: 3900 µg/mL to 4000 µg/mL and ~26000 µM
[3]
  time for the MCH level to adjust itself to the initial level after dilution or evaporation: ≤ 30 min
[3]; volume 70 % relative to initial (evaporation)
  MCH in Solution: 4.03 g/L
[3]; volume 80 % relative to initial (evaporation)
  MCH in Solution: 3.92 g/L
[3]; volume 90 % relative to initial (evaporation)
  MCH in Solution: 3.88 g/L
[3]; volume 100 % relative to initial, 30 minutes
  MCH in Solution: 3.80 g/1
[3]; volume 110 % relative to initial, 30 minutes
  MCH in Solution: 3.81 g/L
[3]; volume 120 % relative to initial, 30 minutes
  MCH in Solution: 3.87 g/L
[3]; volume 130 % relative to initial, 30 minutes
  MCH in Solution: 4.11 g/L
[3]; volume 140 % relative to initial, 30 minutes
  MCH in Solution: 4.05 g/L
[3]; volume 150 % relative to initial, 30 minutes
  MCH in Solution: 3.96 g/L
[2]
  share of the antioxidant in solution in the developer: About 90%

## ON(Cc1ccccc1)Cc1ccccc1 [dibenzyl-hydroxylamine, reference compound]
[1]
  solubility in water: almost entirely insoluble in water

## CC(C)(C)NO [mono-t-butyl-hydroxylamine, reference compound]
[1]
  solubility in water: too soluble
